Measurements: patent US8012949B2, “Bisphosphonate compounds and methods with enhanced potency for multiple targets including FPPS, GGPPS, and DPPS” (The Board of Trustees of the University of Illinois, priority 2004, dated 2011)

Tests used:
[1] = tested on: cancer cell growth (average); assay: Inhibition of cancer cell growth (average); format: cell-based; settings: Homo sapiens
Procedure: Compound 754 was synthesized and tested for activity.
Cell Growth Inhibition Assays. The human tumor cell lines MCF-7 (breast adenocarcinoma), NCI-H460 (lung large cell) and SF-268 (central nervous system glioblastoma) were obtained from the National Cancer Institute. All lines were cultured in RPMI-1640 medium supplemented with 10% fetal bovine serum and 2 mM L-glutamine at 37° C. in a 5% CO2 atmosphere with 100% humidity. A broth microdilution method was used to determine IC50 values for growth inhibition by each bisphosphonate. […] NBPs were typically initially dissolved in H2O (0.01 M) while NNBPs were typically dissolved in DMSO (0.01 M). Plates were then incubated for 4 days at 37° C. in a 5% CO2 atmosphere at 100% humidity after which an MTT ((3-(4,5-dimethylthiazole-2-yl)-2,5-diphenyltetrazolium bromide) cell proliferation assay (ATCC, Manassas, Va.) was used to obtain dose-response curves. The DMSO carrier had no effect on cell proliferation.

human FPPS = molecular target: T1, human FPPS (Homo sapiens, UniProt P14324); assay: human FPPS enzyme inhibition; format: biochemical
T1 construct: made in house
T1 sequence (P14324 1-419): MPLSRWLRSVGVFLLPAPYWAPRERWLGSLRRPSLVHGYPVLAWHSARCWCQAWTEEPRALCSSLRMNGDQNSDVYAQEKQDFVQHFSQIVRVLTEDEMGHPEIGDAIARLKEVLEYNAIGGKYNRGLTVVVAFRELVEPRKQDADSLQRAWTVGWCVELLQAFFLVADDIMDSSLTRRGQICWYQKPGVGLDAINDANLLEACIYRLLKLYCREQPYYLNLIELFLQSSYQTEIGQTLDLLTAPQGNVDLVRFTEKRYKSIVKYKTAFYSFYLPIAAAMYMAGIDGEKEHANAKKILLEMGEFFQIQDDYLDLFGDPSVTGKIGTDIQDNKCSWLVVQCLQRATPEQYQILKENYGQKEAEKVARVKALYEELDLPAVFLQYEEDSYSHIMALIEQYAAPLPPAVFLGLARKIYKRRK
Source text: (§1) To test our polypharmaceutical hypothesis, we expressed three enzymes: human FPPS, GGPPS and DPPS, and tested each for their inhibition by a series of bisphosphonates.

human DPPS = molecular target: T2, human DPPS (Homo sapiens, UniProt Q5T2R2); assay: human DPPS enzyme inhibition; format: biochemical
T2 construct: made in house
T2 sequence (Q5T2R2 1-415): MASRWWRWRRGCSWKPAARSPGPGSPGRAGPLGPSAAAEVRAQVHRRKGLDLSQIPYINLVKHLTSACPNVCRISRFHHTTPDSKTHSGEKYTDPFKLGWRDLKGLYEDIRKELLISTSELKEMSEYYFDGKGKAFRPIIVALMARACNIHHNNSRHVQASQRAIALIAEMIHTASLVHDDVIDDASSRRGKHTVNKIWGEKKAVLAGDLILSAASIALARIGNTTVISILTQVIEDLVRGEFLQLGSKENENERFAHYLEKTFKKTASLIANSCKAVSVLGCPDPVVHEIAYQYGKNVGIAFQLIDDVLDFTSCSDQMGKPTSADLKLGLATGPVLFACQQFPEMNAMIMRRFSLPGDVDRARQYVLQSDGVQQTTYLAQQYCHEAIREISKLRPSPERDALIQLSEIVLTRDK
T2 sequence (Q86YH6 1-399 partner): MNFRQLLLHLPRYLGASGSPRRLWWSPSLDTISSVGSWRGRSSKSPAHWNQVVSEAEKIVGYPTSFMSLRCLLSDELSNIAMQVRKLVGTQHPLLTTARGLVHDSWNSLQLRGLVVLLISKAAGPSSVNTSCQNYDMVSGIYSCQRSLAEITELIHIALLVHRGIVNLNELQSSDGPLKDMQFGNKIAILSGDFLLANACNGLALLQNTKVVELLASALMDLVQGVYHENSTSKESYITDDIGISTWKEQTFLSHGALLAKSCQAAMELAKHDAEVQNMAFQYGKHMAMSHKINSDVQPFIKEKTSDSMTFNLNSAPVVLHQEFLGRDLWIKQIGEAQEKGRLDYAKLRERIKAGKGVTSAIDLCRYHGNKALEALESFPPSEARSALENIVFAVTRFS
Source text: as §1

Vγ2Vδ2 T cells = assay: γδ T cell activation (TNF-α release and proliferation); format: cell-based, human
Method in brief: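 Vγ2Vδ2 T cell clones (CD4+ JN.24, CD4+ HF.2, CD8αα+ 12G12, CD4−8− HD.108) stimulated with phosphoantigens plus 0.05% glutaraldehyde-fixed APCs: CP.EBV B cells for CD4+ clones, Va-2 fibroblasts for others. TNF-α release and proliferation measured; curve minima from global fitting per experiment, maxima fitted per compound unconstrained.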

[2] = molecular target: T3, human recombinant geranylgeranyl diphosphate synthase (hGGPPS) (Homo sapiens, UniProt O95749); assay: Human recombinant GGPPS inhibition (radiometric assay); format: biochemical
T3 construct: made in house
T3 sequence (O95749 1-300): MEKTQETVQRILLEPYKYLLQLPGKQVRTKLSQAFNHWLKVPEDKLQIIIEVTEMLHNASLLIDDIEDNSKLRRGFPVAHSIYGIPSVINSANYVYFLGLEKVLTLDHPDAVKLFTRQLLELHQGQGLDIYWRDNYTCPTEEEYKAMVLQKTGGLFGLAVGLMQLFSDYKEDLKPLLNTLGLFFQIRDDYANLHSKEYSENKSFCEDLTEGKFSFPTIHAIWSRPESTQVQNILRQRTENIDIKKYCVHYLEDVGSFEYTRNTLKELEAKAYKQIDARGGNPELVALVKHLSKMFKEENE
Procedure: as §1
Human recombinant GGPPS inhibition. The purification of human recombinant geranylgeranyl diphosphate synthase (hGGPPS) followed the protocol reported previously^2. GGPPS inhibition by bisphosphonates was determined using the radiometric assay reported previously^2 with slight modification. […] IPP and incubated at 37° C. for 20 min. The reaction was terminated by the addition of 75 μL of HCl/MeOH. Following a second 20 min incubation at 37° C. to effectively hydrolyze the allylic pyrophosphates, the reaction mixtures were neutralized by the addition of 75 μL of 6 N NaOH and extracted with 500 μL of hexane. 200 μL of the organic phase was transferred to a scintillation vial for counting. The IC50 values were obtained by fitting the data to the dose-response curve in Origin 6.1 (OriginLab Corp., Northampton, Mass., www.OriginLab.com).

For CCCCCCCCCCOc1cccc(CC(O)(P(=O)(O)O)P(=O)(O)O)c1 [BPH-754], the IC50 [1] was 500 nM, the “effect on FPPS” value (human FPPS) was “essentially no effect” and the Ki (human FPPS; Table 1, experimental, read-out: FPPS pKi (converted)) was 5010 nM. For the same molecule, the “effect on DPPS” value (human DPPS) was “essentially no effect”, the Ki (human DPPS; Table 1, experimental, read-out: DPPS_pKi (converted)) was 200 nM and the “γδ T cell activation” value (Vγ2Vδ2 T cells) was “no effect”. For the same molecule, the “effect on GGPPS” value [2] was “good GGPPS inhibitor” and the Ki ([2]; Table 1, experimental, read-out: GGPPS pKi (converted)) was 15.8 nM.
